Source: patent US11413278B2, “Compounds and methods for promoting stress resistance” (priority 2015, dated 2022)
pEC50: −log10 of the molar value. Like-named read-outs stand apart in the source and are kept apart here.

Tests used:
FOXO3 = assay: qPCR analysis of FOXO3-regulated genes; assay type: cell-based, human; conditions: for fold induction at 10 µM: Homo sapiens; for K = Sestrin induction: score
In short: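 FOXO3 target-gene expression quantified by qPCR normalised to B2M, PPIA and GAPDH, in WI-38 cells after 24 h exposure to 10 μM compound. Some runs used cells first transfected 36 h with 10 nM FOXO3 or NRF2 siRNA and replated ~24 h before dosing.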

WI-38 cells [1] = conditions: for No H2O2 stress treatment, at 10 uM (fold change): normalized ATP measurement; for Assay 1: H2O2-resistant: YES/NO, if NO, possibly due to repeated freezing/thawing of stocks
[2] = system: human dermal fibroblast (HDF) primary cells; assay: H2O2-resistance in primary human dermal fibroblasts; assay type: cell-based; conditions: for fold induction at 10 µM: Homo sapiens; for Assay 6: H2O2-resistant, at 10 uM, human dermal fibroblast (HDF) primary cells: YES/NO
C. elegans = assay type: in vivo, Caenorhabditis elegans; conditions: in vivo
In short: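 Survival under oxidative stress: 500 μM H2O2 (final) was added to day-4 adults kept in liquid with compounds, FUdR present, 4 wells per molecule and 0.2% DMSO controls, with daily scoring of viability.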

[3] = Summary score for characterization of 38 core set hits; conditions: for D = Triple resistant: 2-point score, multiplex resistance (cadmium, MMS, H2O2); for S = Sum of Negative scores: human; for C = H2O2- & Cd-resistant: score, resistance to both H2O2 and cadmium
In short: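 First, H2O2-resistance screen hits were characterized for longevity-related phenotypes, and each major one (multiplex resistance, FOXO3/NRF2 activation, mTOR down-regulation) received 2 points. Next, C. elegans lifespan extension was scored 0 to 2 from 4 to 6 trials. Finally, human-cell genotoxicity or toxicity subtracted a point.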

WI-38 cells [4] = assay: Propidium iodide (PI) cell-death imaging upon H2O2 stress; assay type: cell-based, human; conditions: for Assay 7: H2O2-resistant, at 10 uM, validated by propidium iodide (PI) cell-death imaging: w/H2O2, 3 hrs/4 hrs/5 hrs, YES/NO; for cytotoxicity at 10 µM: Homo sapiens, WI-38
[5] = 10 μM, 24 hrs, WI-38 cells, qPCR, normalized to B2M, n = 4, read-out: TXNIP expression, normalized fold change (FOXO3-regulated gene)
[6] = WI-38 cells, 10 μM, 24 hrs, n=4, qPCR normalized by B2M, read-out: DDB1 Normalized fold change
[7] = WI-38 cells, 10 μM, 24 hrs, n=4, qPCR normalized by B2M, read-out: GADD45A Normalized fold change
[8] = WI-38 cells, 10 μM, 24 hrs, n=4, qPCR normalized by B2M, read-out: SESN1 Normalized fold change
[9] = fold change, qPCR, WI-38 cells, 10 μM, 24 hrs, read-out: Summary of effects on FOXO3-regulated genes: TXNIP
[10] = qPCR, WI-38 cells, 10 μM, n=4, 24 hrs, normalized by B2M, read-out: CAT Normalized fold change
[11] = qPCR, WI-38 cells, 10 μM, n=4, 24 hrs, normalized by B2M, read-out: SOD2 Normalized fold change
[12] = qPCR, WI-38 cells, 10 μM, n=4, 24 hrs, normalized by B2M, read-out: TXNIP Normalized fold change
[13] = WI-38 cells, 10 μM, (*) = compromised ability to protect cells from H2O2, could be due to stability issue
[14] = asterisks indicate the loss of the ability to protect cells from H2O2 over time
[15] = read-out: Est. ED50, dose response 0.6-20 μM, H2O2-resistance
[16] = Experiment 1, HDF cells, read-out: Experiment 1, HDF cells (under H2O2 stress treatment), at 10 uM (fold change)
[17] = Experiment 2, HDF cells, read-out: Experiment 2, HDF cells (under H2O2 stress treatment), at 10 uM (fold change)
[18] = H2O2 3 hrs, 10 uM, n = 6, negative control 5.44% ± 0.79%, read-out: Percentage of propidium iodide-positive dead cells (under H2O2 stress treatment), 3 hrs
[19] = pre-treatment at 10 uM, 3.5 hours of H2O2, DMSO control 27.4% ± 6.5%, */**/*** = reduced by one/two/three standard deviations, read-out: Percentage of propidium iodide-positive dead cells (under H2O2 stress treatment), at 10 uM

SMILES	E = Potential FOXO3 Activation (FOXO3; 2-point score)	fold induction at 10 µM (FOXO3; [5])	fold induction at 10 µM (FOXO3; [6])	fold induction at 10 µM (FOXO3; [7])	fold induction at 10 µM (FOXO3; [8])	fold induction at 10 µM (FOXO3; [9])	fold induction at 10 µM (FOXO3; [10])	fold induction at 10 µM (FOXO3; [11])	fold induction at 10 µM (FOXO3; [12])	K = Sestrin induction (FOXO3)	E = Potential FOXO3 Activation (FOXO3; summary score)	H2O2-resistant (WI-38 cells [1]; [13])	No H2O2 stress treatment, at 10 uM (fold change) (WI-38 cells [1]; WI-38 cells)	Assay 1: H2O2-resistant (WI-38 cells [1])	H2O2-resistant (WI-38 cells [1]; [14])	pEC50 (WI-38 cells [1]; [15])	fold induction at 10 µM [2, 16]	fold induction at 10 µM [2, 17]	Assay 6: H2O2-resistant, at 10 uM, human dermal fibroblast (HDF) primary cells [2]	L = H2O2-resistance in worms (C. elegans)	also measured
CNC(=O)/C(C#N)=C/c1c(Oc2ccc(C(C)(C)C)cc2)nc2ccccn2c1=O [Gr-5D]	0	0.67	0.984	0.698	1.1	0.67	1.27	1.12	0.669	0	0	YES (*)	1.14	YES	YES (*)	4.73	0.18	2.66	YES	0	N = H2O2-resistance in woms (C. elegans): 0; D = Triple resistant [3]: 0; S = Sum of Negative scores [3]: 0; C = H2O2- & Cd-resistant [3]: 0; Assay 7: H2O2-resistant, at 10 uM, validated by propidium iodide (PI) cell-death imaging (WI-38 cells [4]; 10 uM): YES; cytotoxicity at 10 µM (WI-38 cells [4]; [18]): 3.28%; cytotoxicity at 10 µM (WI-38 cells [4]; [19]): 6.4%
O=C(Nc1cccc(Cl)c1)c1ccc([N+](=O)[O-])o1 [Gr-1D]	0	0.62	1.18	1.92	1.73	0.62	0.953	1.42	0.621	1	0	YES	0.91	YES	YES	5.57	2.79	49.3	YES	0	fold induction at 10 µM (FOXO3; 24 h, Assay 10(m), at 10 uM, qPCR, read-out: Induction of FOXO3-regulated genes: DDB1 normalized fold-change): 1.13; fold induction at 10 µM (FOXO3; 24 h, Assay 10(m), at 10 uM, qPCR, read-out: Induction of FOXO3-regulated genes: SESN1 normalized fold-change): 1.91; fold induction at 10 µM (FOXO3; WI-38, 24 h, read-out: SESN1 expression): > 1.5; fold induction at 10 µM (FOXO3; 10 μM, 24 hrs, WI-38 cells, qPCR, normalized to B2M, n = 4, read-out: DDB1 expression, normalized fold change (FOXO3-regulated gene)): 1.18; fold induction at 10 µM (FOXO3; 10 μM, 24 hrs, WI-38 cells, qPCR, normalized to B2M, n = 4, read-out: SESN1 expression, normalized fold change (FOXO3-regulated gene)): 1.73; fold induction at 10 µM (FOXO3; fold change, qPCR, WI-38 cells, 10 μM, 24 hrs, read-out: Summary of effects on FOXO3-regulated genes: DDB1): 1.18; fold induction at 10 µM (FOXO3; fold change, qPCR, WI-38 cells, 10 μM, 24 hrs, read-out: Summary of effects on FOXO3-regulated genes: SESN1): 1.73; pEC50 (WI-38 cells [1]; derived from dose response curves, 0.6-20 uM, H2O2-resistance of WI-38 cells): 5.34; N = H2O2-resistance in woms (C. elegans): 0; D = Triple resistant [3]: 0; S = Sum of Negative scores [3]: 1; C = H2O2- & Cd-resistant [3]: 1; Assay 7: H2O2-resistant, at 10 uM, validated by propidium iodide (PI) cell-death imaging (WI-38 cells [4]; 10 uM): YES; cytotoxicity at 10 µM (WI-38 cells [4]; [18]): 6.27%; cytotoxicity at 10 µM (WI-38 cells [4]; H2O2 4 hrs, 10 uM, n = 6, negative control 16.81% ± 1.42%, read-out: Percentage of propidium iodide-positive dead cells (under H2O2 stress treatment), 4 hrs): 5.83%; cytotoxicity at 10 µM (WI-38 cells [4]; [19]): 36.7%
